Assay results as given in US7160901B2, “Substituted indolinones, preparation thereof and their use as pharmaceutical compositions” (Boehringer Ingelheim Pharma GmbH & Co. KG, priority 2000, dated 2007).

system: Leiomyosarcoma tumour cell line SK-UT-1B; assay: Test 1: inhibition of the proliferation of cultivated human tumour cells (14C-thymidine incorporation), SK-UT-1B; format: cell-based; settings: Homo sapiens, Skut1B; in vitro Test 1; SK-UT-1B cells; 48 hours' incubation, then 14C-thymidine for a further 24 hours; IC50 of inhibition of incorporated 14C-thymidine; read-out: Inhibition of SKUT-1B proliferation
Excerpt: Inhibition of the Proliferation of Cultivated Human Tumour Cells
Cells of the Leiomyosarcoma tumour cell line SK-UT-1B or non-small-cell lung tumour cell line NCI-H460 (obtained from the American Type Culture Collection (ATCC)) were cultivated in Minimum Essential Medium with non-essential amino acids (Gibco), supplemented with sodium pyruvate (1 mMol), glutamine (2 mMol) and 10% foetal calf serum (Gibco) or RPMI1640 Medium (Gibco) and 10% foetal calf serum (Gibco) and harvested in the logarithmic growth phase. Then the SK-UT-1B cells were placed in Cytostar® multi-well plates (Amersham) at a density of 4000 cells per well or 3000 cells per well for NCI-H460 cells and incubated overnight in an incubator. Various concentrations of the compounds (dissolved in DMSO; final concentration: 0.1%) were added to the cells. After 48 hours' incubation, ^14C-thymidine (Amersham) was added to each well and incubation was continued for a further 24 hours. The quantity of ^14C-thymidine which was incorporated into the tumour cells in the presence of the inhibitor and which represents the number of cells in the S phase was measured in a Wallace 1450 Microbeta Liquid Scintillation Counter. IC50 values for the inhibition of the proliferation (=inhibition of incorporated ^14C-thymidine) were calculated, correcting for the background radiation. All the measurements were done twice.
The following Table contains the results obtained with the in vitro Test 1 (++ denotes <0.01 μM, + denotes 0.01–1.0 μM): […]

Compound	IC50 [nM]
CCCS(=O)(=O)Nc1ccc2c(c1)/C(=C(/Nc1ccc(CN3CCCC3)cc1)c1ccccc1)C(=O)N2 [Example 143, (Z)-3-{1-[4-(pyrrolidin-1-ylmethyl)-phenylamino]-1-phenyl-methylidene}-5-propylsulphonylamino-2-indolinone]	10 to 1000
O=C1Nc2ccc(NS(=O)(=O)c3ccccc3)cc2/C1=C(/Nc1ccc(Cl)cc1)c1ccccc1 [Example 23, (Z)-3-[1-(4-chlorophenylamino)-1-phenyl-methylidene]-5-phenylsulphonylamino-2-indolinone]	10 to 1000
CS(=O)(=O)Nc1ccc2c(c1)/C(=C(/Nc1ccc(CN3CCCCC3)cc1)c1ccccc1)C(=O)N2 [Example 98, (Z)-3-[1-(4-piperidinomethyl-phenylamino)-1-phenyl-methylidene]-5-methylsulphonylamino-2-indolinone]	10 to 1000
O=C1Nc2ccc(NS(=O)(=O)c3ccccc3)cc2/C1=C(/Nc1ccc(CN2CCCC2)cc1)c1ccccc1 [Example 12, (Z)-3-{1-[4-(pyrrolidin-1-ylmethyl)-phenylamino]-1-phenyl-methylidene}-5-phenylsulphonylamino-2-indolinone]	10 to 1000
O=C1Nc2ccc(NS(=O)(=O)c3cccnc3)cc2/C1=C(/Nc1ccc(CN2CCCC2)cc1)c1ccccc1 [Example 80, (Z)-3-{1-[4-(pyrrolidin-1-ylmethyl)-phenylamino]-1-phenyl-methylidene}-5-(pyridin-3-ylsulphonylamino)-2-indolinone]	< 10
O=C1Nc2ccc(N(c3cccnc3)S(=O)(=O)c3ccccc3)cc2/C1=C(/Nc1ccc(CN2CCCCC2)cc1)c1ccccc1 [Example 134, (Z)-3-{1-[4-(piperidinomethyl)-phenylamino]-1-phenyl-methylidene}-5-(pyridin-3-ylphenylsulphonylamino)-2-indolinone]	< 10

system: not given; assay: not given; settings: not given

Compound	melting point [°C]
O=C(Cc1ccc(N/C(=C2\C(=O)Nc3ccc(NS(=O)(=O)c4ccccc4)cc32)c2ccccc2)cc1)NCc1ccccc1 [Example 154, (Z)-3-{1-[4-(benzylaminocarbonylmethyl)-phenylamino]-1-phenyl-methylidene}-5-phenylsulphonylamino-2-indolinone]	219 to 220
CC(=O)N(CCN(C)C)c1ccc(N/C(=C2\C(=O)Nc3ccc(N(C)S(=O)(=O)c4ccccc4)cc32)c2ccccc2)cc1 [Example 208, (Z)-3-{1-[4-(N-(2-dimethylamino-ethyl)-N-acetyl-amino)-phenylamino)-1-phenyl-methylidene}-5-(N-methyl-N-phenylsulphonyl-amino)-2-indolinone]	217
CN(C(=O)CN1CCCCC1)c1ccc(N/C(=C2\C(=O)Nc3ccc(N(C)S(=O)(=O)c4ccccc4)cc32)c2ccccc2)cc1 [Example 209, (Z)-3-{1-[4-(N-methyl-N-piperidinomethylcarbonyl-amino)-phenylamino)-1-phenyl-methylidene}-5-(N-methyl-N-phenylsulphonyl-amino)-2-indolinone]	160
O=C(O)Cc1ccc(N/C(=C2\C(=O)Nc3ccc(NS(=O)(=O)c4ccccc4)cc32)c2ccccc2)cc1 [Example 153, (Z)-3-[1-(4-carboxymethyl-phenylamino)-1-phenyl-methylidene]-5-phenylsulphonylamino-2-indolinone]	305 to 306
CS(=O)(=O)Nc1ccc2c(c1)/C(=C(/Nc1ccc(CN3CCCCC3)cc1)c1ccccc1)C(=O)N2 [Example 98, (Z)-3-[1-(4-piperidinomethyl-phenylamino)-1-phenyl-methylidene]-5-methylsulphonylamino-2-indolinone]	266
CN(C)Cc1cccc(N/C(=C2\C(=O)Nc3ccc(N(C)S(=O)(=O)c4ccccc4)cc32)c2ccccc2)c1 [Example 210, (Z)-3-[1-(3-dimethylaminomethyl-phenylamino)-1-phenyl-methylidene]-5-(N-methyl-N-phenylsulphonyl-amino)-2-indolinone]	226
CC(=O)N(CCN)c1ccc(N/C(=C2\C(=O)Nc3ccc(NS(=O)(=O)c4ccccc4)cc32)c2ccccc2)cc1 [Example 1, (Z)-3-{1-[4-(N-acetyl-N-(2-aminoethyl)-amino)-phenylamino]-1-phenyl-methylidene}-5-phenylsulphonylamino-2-indolinone]	216
CS(=O)(=O)N(CC(N)=O)c1ccc(N/C(=C2\C(=O)Nc3ccc(NS(=O)(=O)c4ccccc4)cc32)c2ccccc2)cc1 [Example 155, (Z)-3-{1-[4-(N-(aminocarbonylmethyl)-N-methylsulphonyl-amino)-phenylamino]-1-phenyl-methylidene}-5-phenylsulphonylamino-2-indolinone]	216 to 217
CCOC(=O)Cc1ccc(N/C(=C2\C(=O)Nc3ccc(NS(=O)(=O)c4ccccc4)cc32)c2ccccc2)cc1 [Example 152, (Z)-3-[1-(4-ethoxycarbonylmethyl-phenylamino)-1-phenyl-methylidene]-5-phenylsulphonylamino-2-indolinone]	248 to 249
